# Key:
# SA ribosomes = assay: S. aureus cell free in vitro transcription-translation assay (luciferase reporter); format: biochemical, Staphylococcus aureus; details: for IC50, inhibition of protein synthesis: luciferase luminescence, S. aureus system
# Description: The SA ribosomes activity was tested and its level was determined in a bacterial coupled transcription/translation assay system which measures the expression of the luciferase gene, according to Murray, R. W. et al. [Antimicrobial agents and chemotherapy, 2001, 45(6), p. 1900-1904]. Briefly, the luciferase gene was inserted into plasmid with T7 RNA polymerase promoter. The 30 μl reaction's volume contained 160 mM Hepes-KOH buffer (pH 7.5), 6.5% PEG 8K, 0.074 mg/ml tyrosine, 1.3 mM ATP, 0.86 mM CTP, GTP and UTP, 208 mM potassium glutamate, 83 mM creatine phosphate, 28 mM NH4OAc, 0.663 mM cAMP, 1.8 mM DTT, 0.036 mg/ml folinic acid, 0.174 mg/ml E. coli tRNA mix, 1 mM amino acid, 0.25 mg/ml creatine kinase, 0.027 mg/ml T7 RNA polymerase, ribosome free E. coli cell free extract, 300 nM of SA ribosomes and 0.003 μg/μl luciferase plasmid.
# The reaction mixture was incubated at 37° C. for 1 hour, and erythromycin was added at a final concentration of 8 μM in order to terminate the reaction. 50 μl of Luciferin Assay Reagent (LAR, Promega) was added to the mixture and luminescence was measured in order to quantify the reaction's products.
# FIGS. 20A-B present the results of in vitro transcription-translation cell-free inhibition assays of bacterial protein synthesis, wherein the inhibitory effect on protein expression in S. aureus system of BC-3205 is presented in FIG. 20A and of lefamulin is presented in FIG. 20B. The activity of the reporter protein (luciferase) in the presence of various concentrations of BC-3205 and lefamulin is shown as arbitrary unit of luminescence [a.u.].
# Staphylococcus aureus = details: cited from earlier work
Structure (SMILES),"IC50, inhibition of protein synthesis (SA ribosomes) [µg/mL]",MIC against SA (Staphylococcus aureus) [µg/mL],potency against SA relative to linezolid (Staphylococcus aureus; more potent than linezolid),"IC50 against S. aureus ribosome compared to E. coli ones (SA ribosomes; in words only, data not shown)"
C=C[C@]1(C)C[C@@H](OC(=O)CS[C@H]2CCCN(C(=O)[C@H](N)C(C)C)C2)[C@]2(C)[C@H](C)CC[C@]3(CCC(=O)[C@H]32)[C@@H](C)[C@@H]1O [BC-3205],0.42,0.06,16-32 fold,–
C=C[C@]1(C)C[C@@H](OC(=O)CS[C@@H]2CC[C@@H](N)C[C@H]2O)[C@]2(C)[C@H](C)CC[C@]3(CCC(=O)[C@H]32)[C@@H](C)[C@@H]1O [lefamulin],0.09,–,–,–
CCC[C@@H]1C[C@@H](C(=O)N[C@@H]([C@H]2O[C@H](SC)[C@H](O)[C@@H](O)[C@H]2O)[C@@H](C)O)N(C)C1 [lincomycin],–,–,–,super low IC50

# Source: patent publication US10723770B2, “Crystal structure of the large ribosomal subunit from S. aureus” (Yeda Research and Development Co. Ltd., priority 2015, dated 2020)
